According to ChEMBL document CHEMBL5029165, “Derivatives of montanine-type alkaloids and their implication for the treatment of Alzheimer's disease: Synthesis, biological activity and in silico study” (Bioorg Med Chem Lett, 2021):

What was measured:
[1] = Selectivity index, ratio of IC50 for human AChE to IC50 for human BuChe
[2] = Selectivity index, ratio of IC50 for human BuChe to IC50 for human AChE
[3] = molecular target: T1, Cholinesterase (Homo sapiens, UniProt P06276); assay: Inhibition of human BuChE using butyrylthiocholine chloride as substrate by Ellman's method
T1 sequence (P06276 whole entry): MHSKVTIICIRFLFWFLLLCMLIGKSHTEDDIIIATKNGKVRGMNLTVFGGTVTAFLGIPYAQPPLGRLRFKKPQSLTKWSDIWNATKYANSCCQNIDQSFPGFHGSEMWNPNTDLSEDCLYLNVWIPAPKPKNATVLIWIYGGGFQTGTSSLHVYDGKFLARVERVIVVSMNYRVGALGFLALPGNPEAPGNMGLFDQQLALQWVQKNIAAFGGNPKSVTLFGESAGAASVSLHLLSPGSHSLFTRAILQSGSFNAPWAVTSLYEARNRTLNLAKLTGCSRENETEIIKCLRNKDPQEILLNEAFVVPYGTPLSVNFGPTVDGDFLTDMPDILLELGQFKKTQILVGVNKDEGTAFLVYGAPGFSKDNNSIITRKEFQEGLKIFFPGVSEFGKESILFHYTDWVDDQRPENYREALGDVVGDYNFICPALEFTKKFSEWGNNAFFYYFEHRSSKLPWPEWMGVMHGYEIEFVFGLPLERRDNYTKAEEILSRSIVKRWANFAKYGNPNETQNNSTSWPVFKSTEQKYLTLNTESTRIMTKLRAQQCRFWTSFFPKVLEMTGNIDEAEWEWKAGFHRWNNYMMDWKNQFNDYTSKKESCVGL

[4] = molecular target: T2, Acetylcholinesterase (Homo sapiens, UniProt P22303); assay: Inhibition of human AChE using acetylthiocholine as substrate by Ellman's method
T2 sequence (P22303 whole entry): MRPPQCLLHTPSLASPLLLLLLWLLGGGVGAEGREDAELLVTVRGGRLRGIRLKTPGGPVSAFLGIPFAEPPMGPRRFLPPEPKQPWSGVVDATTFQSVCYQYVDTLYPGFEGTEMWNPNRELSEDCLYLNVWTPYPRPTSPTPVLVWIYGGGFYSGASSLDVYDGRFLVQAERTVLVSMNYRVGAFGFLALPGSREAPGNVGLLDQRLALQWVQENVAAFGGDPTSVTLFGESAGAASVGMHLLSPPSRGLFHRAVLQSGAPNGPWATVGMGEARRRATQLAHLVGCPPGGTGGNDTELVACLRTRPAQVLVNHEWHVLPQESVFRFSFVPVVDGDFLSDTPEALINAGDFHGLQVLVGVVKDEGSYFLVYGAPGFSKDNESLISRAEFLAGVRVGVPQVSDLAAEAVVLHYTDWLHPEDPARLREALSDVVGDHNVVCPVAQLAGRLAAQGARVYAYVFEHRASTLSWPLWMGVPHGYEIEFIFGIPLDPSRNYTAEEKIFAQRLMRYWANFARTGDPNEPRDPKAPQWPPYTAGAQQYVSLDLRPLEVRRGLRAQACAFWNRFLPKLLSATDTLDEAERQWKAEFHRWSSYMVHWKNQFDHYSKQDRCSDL

[5] = molecular target: T1, Cholinesterase; assay: Inhibition of human BuChE at 100 uM using butyrylthiocholine chloride as substrate by Ellman's method
[6] = molecular target: T2, Acetylcholinesterase; assay: Inhibition of human AChE at 100 uM using acetylthiocholine as substrate by Ellman's method

SMILES | Selectivity Index [1] | Selectivity Index [2] | IC50 [3] [µM] | IC50 [4] [µM] | inhibition [5] [%] | inhibition [6] [%]
CO[C@H]1C=C2[C@H]3CN(Cc4cc5c(cc43)OCO5)[C@H]2C[C@@H]1OC(=O)N1CCCCC1 | > 15.3 | < 0.07 | 6.54 | > 100 | 88.2 | 10.9
CO[C@H]1C[C@H]2C(=C[C@@H]1OC(=O)c1ccc([N+](=O)[O-])cc1)[C@H]1CN2Cc2cc3c(cc21)OCO3 | – | – | > 100 | > 100 | 26.2 | 48.1
CO[C@H]1C[C@H]2C(=C[C@@H]1OC(=O)c1ccc([N+](=O)[O-])cc1Cl)[C@H]1CN2Cc2cc3c(cc21)OCO3 | – | – | > 100 | > 100 | 27.1 | 48.6
CO[C@H]1C[C@H]2C(=C[C@@H]1OC(=O)c1cc(Br)cc([N+](=O)[O-])c1)[C@H]1CN2Cc2cc3c(cc21)OCO3 | – | – | > 100 | > 100 | 31.7 | 28
COc1ccc(C(=O)O[C@H]2C=C3[C@H]4CN(Cc5cc6c(cc54)OCO6)[C@H]3C[C@@H]2OC)cc1OC | – | – | > 100 | > 100 | 18.1 | 17.2
CO[C@H]1C[C@H]2C(=C[C@@H]1OC(=O)c1ccccc1C)[C@H]1CN2Cc2cc3c(cc21)OCO3 | – | – | > 100 | > 100 | 30.2 | 29.7
COc1ccccc1C(=O)O[C@H]1CN2Cc3cc4c(cc3[C@]13C=C[C@@H](O)C[C@H]23)OCO4 | – | – | 3.3 | 90 | – | –
CO[C@H]1C[C@H]2C(=C[C@@H]1OC(=O)c1cc([N+](=O)[O-])ccc1Cl)[C@H]1CN2Cc2cc3c(cc21)OCO3 | < 0.03 | > 31.4 | > 100 | 3.18 | 30 | 78.7
CO[C@H]1C[C@H]2C(=C[C@@H]1OC(=O)C1CCCCC1)[C@H]1CN2Cc2cc3c(cc21)OCO3 | > 57.8 | < 0.02 | > 100 | > 100 | 20.8 | 1.2
Cc1ccccc1C(=O)O[C@@H]1C=C[C@]23CCN(Cc4cc5c(cc42)OCO5)[C@H]3C1 | – | – | 8 | > 100 | – | –
CO[C@H]1C=C2[C@H]3CN(Cc4cc5c(cc43)OCO5)[C@H]2C[C@@H]1OC(=O)c1ccc(Cl)c([N+](=O)[O-])c1 | – | – | > 100 | > 100 | 13.8 | 4.8
CO[C@H]1C[C@H]2C(=C[C@@H]1O)[C@H]1CN2Cc2cc3c(cc21)OCO3 | – | – | > 100 | > 100 | 9.2 | 9.2
CO[C@H]1C[C@H]2C(=C[C@@H]1OC(=O)c1ccc(C)cc1)[C@H]1CN2Cc2cc3c(cc21)OCO3 | – | – | > 100 | > 100 | 12.9 | 12.4
CO[C@H]1C[C@H]2C(=C[C@@H]1OC(=O)c1cccs1)[C@H]1CN2Cc2cc3c(cc21)OCO3 | – | – | > 100 | > 100 | 49.7 | 29.4
O=C(O[C@H]1CN2Cc3cc4c(cc3[C@]13C=C[C@@H](O)C[C@H]23)OCO4)c1ccccc1Cl | – | – | 5.6 | 13 | – | –
COc1ccccc1C(=O)O[C@H]1C=C2[C@H]3CN(Cc4cc5c(cc43)OCO5)[C@H]2C[C@@H]1OC | – | – | > 100 | > 100 | 30.1 | 15.6
CO[C@H]1C=C2[C@H]3CN(Cc4cc5c(cc43)OCO5)[C@H]2C[C@@H]1OC(=O)c1cc([N+](=O)[O-])ccc1Cl | – | – | > 100 | > 100 | 40.1 | 1.8
CO[C@H]1C[C@H]2C(=C[C@@H]1OC(=O)c1ccco1)[C@H]1CN2Cc2cc3c(cc21)OCO3 | – | – | > 100 | > 100 | 26.9 | 15.1
CO[C@H]1C=C2[C@H]3CN(Cc4cc5c(cc43)OCO5)[C@H]2C[C@@H]1O | – | – | – | – | 8.4 | 13.7

SMILES | Selectivity Index [1] | Selectivity Index [2] | IC50 [3] [µM] | IC50 [4] [µM] | inhibition [5] [%] | inhibition [6] [%]
CO[C@H]1C[C@H]2C(=C[C@@H]1OC(=O)c1ccccc1)[C@H]1CN2Cc2cc3c(cc21)OCO3 | – | – | > 100 | > 100 | 20.1 | 8.5
COc1cccc(C(=O)O[C@H]2C=C3[C@H]4CN(Cc5cc6c(cc54)OCO6)[C@H]3C[C@@H]2OC)c1 | – | – | > 100 | > 100 | 20.3 | 19.3
CO[C@H]1C[C@H]2C(=C[C@@H]1OC(=O)c1cc([N+](=O)[O-])cc([N+](=O)[O-])c1)[C@H]1CN2Cc2cc3c(cc21)OCO3 | < 0.13 | > 7.66 | > 100 | 13.1 | 19.2 | 70.8
O=C(O[C@@H]1C=C[C@]23CCN(Cc4cc5c(cc42)OCO5)[C@H]3C1)c1ccccc1[N+](=O)[O-] | – | – | 1.4 | 60 | – | –
CO[C@H]1C=C2[C@H]3C[N@@](Cc4cc5c(cc43)OCO5)[C@H]2C[C@@H]1O [MONTANINE] | – | – | > 100 | > 100 | – | –
COc1c2c(cc3c1OCO3)[C@]13C=C[C@H](OC)C[C@H]1N(C2)C[C@H]3OC(=O)c1cccc2ccccc12 | – | – | 0.1 | > 100 | – | –
O=C(O[C@H]1CN2Cc3cc4c(cc3[C@]13C=C[C@@H](O)C[C@H]23)OCO4)c1cccc([N+](=O)[O-])c1 | – | – | > 100 | 4 | – | –
CO[C@H]1C[C@H]2C(=C[C@@H]1OC(=O)c1ccc(C)c([N+](=O)[O-])c1)[C@H]1CN2Cc2cc3c(cc21)OCO3 | < 0.04 | > 23.1 | > 100 | 4.32 | 6.8 | 81.5
CO[C@H]1C[C@H]2C(=C[C@@H]1OC(=O)c1cccc(C)c1)[C@H]1CN2Cc2cc3c(cc21)OCO3 | – | – | > 100 | > 100 | 12.9 | 18.2
CO[C@H]1C[C@H]2C(=C[C@@H]1OCCN1CCCCC1)[C@H]1CN2Cc2cc3c(cc21)OCO3 | – | – | > 100 | > 100 | 45.2 | 6.5
CO[C@H]1C[C@H]2C(=C[C@@H]1OC(=O)N1CCCCC1)[C@H]1CN2Cc2cc3c(cc21)OCO3 | – | – | 1.73 | > 100 | 97 | 8.8
COc1ccc(C(=O)O[C@H]2C=C3[C@H]4CN(Cc5cc6c(cc54)OCO6)[C@H]3C[C@@H]2OC)cc1 | – | – | > 100 | > 100 | 15.5 | 12.5
CO[C@H]1C=C2[C@H]3CN(Cc4cc5c(cc43)OCO5)[C@H]2C[C@@H]1OC(=O)c1ccc([N+](=O)[O-])cc1Cl | > 5.9 | < 0.17 | 17 | > 100 | 69.8 | 2.3
CO[C@H]1C[C@H]2C(=C[C@@H]1OC(=O)c1ccoc1)[C@H]1CN2Cc2cc3c(cc21)OCO3 | – | – | > 100 | > 100 | 30.2 | 6.8
CO[C@H]1C[C@H]2C(=C[C@@H]1OC(=O)c1ccc(Cl)c([N+](=O)[O-])c1)[C@H]1CN2Cc2cc3c(cc21)OCO3 | < 0.02 | > 62.1 | > 100 | 1.61 | 26.5 | 83.7
CO[C@H]1C=C2[C@H]3CN(Cc4cc5c(cc43)OCO5)[C@H]2C[C@@H]1OC(=O)c1ccc(C)c([N+](=O)[O-])c1 | – | – | > 100 | > 100 | 20.4 | 30.3
CO[C@H]1C[C@H]2C(=C[C@@H]1OC(=O)c1ccccc1[N+](=O)[O-])[C@H]1CN2Cc2cc3c(cc21)OCO3 | – | – | > 100 | > 100 | 45.4 | 34.1
CO[C@H]1C[C@H]2C(=C[C@@H]1OC(=O)c1cccc([N+](=O)[O-])c1)[C@H]1CN2Cc2cc3c(cc21)OCO3 | – | – | > 100 | > 100 | 18.1 | 55.3
